Experiments:
[1] = system: HER2/ErbB2 amplified cell line N87; test: In vivo tumor growth inhibition, xenograft; set-up: species or system Bab/c nude mice; settings: Mus musculus, po, 456 h, 25 mg/kg intragastric once daily, day 19, read-out: TGI (%)
Outline: (§1)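 Female Bab/c nude mice (6–8 weeks) carried subcutaneous H1975, PC-9 or NCI-N87 xenografts and were dosed from 100–200 mm^3 tumors. Dosing was 25 mg/kg intragastrically once daily in a PEG400/Tween-80/propylene glycol suspension for up to 30 days. TGI was derived from caliper volumes (½ab^2) versus vehicle.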

[2] = system: PC-9 tumor cells; test: In vivo tumor growth inhibition, xenograft; set-up: species or system Bab/c nude mice; settings: Mus musculus, po, 456 h; 25 mg/kg intragastric once daily, day 19; read-out: TGI (%) PC-9
Outline: as §1

[3] = system: H1975 tumor cells; test: In vivo tumor growth inhibition, xenograft; set-up: species or system Bab/c nude mice; settings: Mus musculus, NCI-H1975, po, 456 h; 25 mg/kg intragastric once daily, day 19; read-out: TGI (%) H1975
Outline: as §1

[4] = system: H2228 (EML4-ALK); test: Growth inhibition GI50 in vitro (CCK8/MTT, 72 h); format: cell-based; settings: Homo sapiens, NCI-H2228, H2228, EGFR wt
[5] = system: HEL (Jak2 V167F); test: Growth inhibition GI50 in vitro (CCK8/MTT, 72 h); format: cell-based; settings: Homo sapiens; HEL, Jak2 V167F; read-out: GI50
Method: Jak2 is a kind of non-receptor PTK (Janus Kinase 2) with great significance in cell growth, differentiation and transformation. Jak2 gene mutation often leads to bone marrow hyperplasia and transformation. Especially Jak2 V167F mutation is common for clinical patients. Human erythroleukemia cell line HEL expressing Jak2 V167F was cultured with 1×RPMI1640 complete medium (supplement with 10% FBS).
(§2) The suspension cells were collected by centrifugation. The supernatant was discard and the cell pellet was resuspended and counted. Different cell concentrations (5˜10×10^4 cells/mL) were prepared according to the growth cycle of each cell line and then seeded on a 96-well plate (Corning), 100 μL/well. The cells were incubated over night at 37° C., 5% CO2. The compounds were added to the cells on the second day with 2 wells in parallel. The final concentration of organic solvent shall not exceed 1%. The cells were continually incubated for 72 h, and then subjected to MTT assay.
(§3) The present compounds and the reference compounds were dissolved with DMSO (Sigma), respectively. […] The storage concentration of compounds was 10 mM and kept at −20° C. They were diluted by 2 times or 10 times with serial dilution before using.
(§4) Dojindo CCK8 reagent kit was used as MTT assay. […] FC meter was used as microplate reader.
(§5) Adherent cell culture medium was discard and immediately replaced with fresh prepared medium which contains 10% CCK8 reagent (100 μL/well). For the suspension cells, CCK8 was directly added to 10% of the final concentration. The cells were continually incubated for 1˜4 h. When the color of control wells turned to dark yellow, the absorption value was measured at OD450 nm. The cell growth rate was calculated according to the following formula: cell growth rate (%)=100*(T−T0)/(C−T0), T=optical density of drug treatment cell well—optical density of blank control well; T0=optical density of cell well before drug treatment—optical density of blank control well; C=optical density of cell well of solvent control group—optical density of blank control well. […] The experiment was independently repeated 1˜3 times, and subject to biological statistical analysis.
(§6) Growth inhibition assay was conducted in the cell lines shown Table 14 with the different oncogene mutations. Each compound started at 1000 nM as an initial concentration and was diluted by 2 times with serial dilution to 0.03 nM.

[6] = system: HCT116 (EGFR wt, Kras G13D); test: Growth inhibition GI50 in vitro (CCK8/MTT, 72 h); format: cell-based; settings: Homo sapiens, HCT-116; HCT116, EGFR wt, Kras G13D; read-out: GI50
Method: as §2, §3, §4, §5, §6

[7] = system: Kasumi-1 (Kit N822K); test: Growth inhibition GI50 in vitro (CCK8/MTT, 72 h); format: cell-based; settings: Homo sapiens
Method: Kasumi-1 is a leukemia cell line positively expressing c-Kit N822K mutant Abnormal variation of c-Kit often appears in cancer patients. Kasumi-1 cell line was cultured with 1×RPMI1640 complete medium (supplement with 10% FBS).
as §2, §3, §4, §5, §6

[8] = system: MV4-11 (FLT3-ITD); test: Growth inhibition GI50 in vitro (CCK8/MTT, 72 h); format: cell-based, human
Method: FLT3 is a kind of PTK and about 20-30% of patients with acute myelocytic leukemia (AML) in clinic express FLT3-ITD mutation protein. FLT3-ITD positive cell line MV4-11 was cultured with 1×RPMI1640 complete medium (supplement with 10% FBS).
as §2, §3, §4, §5, §6

[9] = system: MKN-45 (Met amp); test: Growth inhibition GI50 in vitro (CCK8/MTT, 72 h); format: cell-based; settings: Homo sapiens, MKN-45, EGFR wt
Method: (§7) Human gastric cancer cell line MKN-45 (ATCC) and NSCLC cell line NCI-H1993 (ATCC) were cultured with 1×RPMI1640 complete medium which was supplement with 10% FBS, respectively.
as §2, §3, §4, §5, §6

[10] = system: H1993 (Met amp); test: Growth inhibition GI50 in vitro (CCK8/MTT, 72 h); format: cell-based; settings: Homo sapiens, NCI-H1993, H1993, EGFR wt
Method: as §7, §2, §3, §4, §5, §6

Structure (SMILES) | inhibition in vivo at 25 mg/kg [1] | inhibition in vivo at 25 mg/kg [2] | inhibition in vivo at 25 mg/kg [3] | GI50 [4] | GI50 [5] | GI50 [6] | GI50 [7] | inhibition effects ([8]; FLT3-ITD+ MV4-11 cells) | GI50 ([8]; Homo sapiens, MV4-11, FLT3-ITD) | GI50 [9] | GI50 [10]
C=CC(=O)Nc1cc(Nc2nccc(-n3ccc4ccc(F)cc43)n2)c(OC)cc1N(C)CCN(C)C [Compound 63, N-(5-(4-(6-fluoro-1H-indol-1-yl)-pyrimidin-2-ylamino)-2-((2-(dimethylamino)ethyl)-methyl-amino)-4-methoxyl-phenyl)-acrylamide] | 94.7% | 98.3% | 98.3% | – | – | – | – | – | – | – | –
C=CC(=O)Nc1cc(Nc2nccc(-n3ccc4c(OC)cccc43)n2)c(OC)cc1N(C)CCN(C)C [Compound 99, N-(5-(4-(4-methoxyl-1H-indol-1-yl)-pyrimidin-2-ylamino)-2-(2-(dimethylamino-ethyl)-methyl-amino)-4-methoxyl-phenyl)-acrylamide] | 95.4% | 95.8% | 94.6% | – | – | – | – | – | – | – | –
C=CC(=O)Nc1cc(Nc2ncnc(Nc3cccc(Br)c3)n2)c(OC)cc1N(C)CCN(C)C [Compound 115, N-(5-(4-(3-bromo-phenylamino)-[1,3,5]triazin-2-ylamino)-2-((2-dimethylamino-ethyl)-methyl-amino)-4-methoxyl-phenyl)-acrylamide] | 97.8% | 97.1% | 59.1% | – | – | – | – | – | – | – | –
C=CC(=O)Nc1cc(Nc2cc(-c3cn(C(C)C)c4ccccc34)ncn2)c(OC)cc1N(C)CCN(C)C [Compound 183] | 97.7% | 98.8% | 97.4% | > 0.5 µM | > 1 µM | > 1 µM | > 1 µM | moderate inhibition effects | > 1 µM | 0.5 µM | > 1 µM
C=CC(=O)Nc1cc(Nc2cc(-c3cn(C(C)C)c4ccc(F)cc34)ncn2)c(OC)cc1N(C)CCN(C)C [Compound 191, N-(5-(6-(5-fluoro-1-isopropyl-1H-indol-3-yl)-pyrimidin-4-ylamino)-4-methoxyl-2-((2-dimethylamino-ethyl)-methyl-amino)-phenyl)-acrylamide] | 96.6% | 98.8% | 99.3% | – | – | – | – | – | – | – | –
C=CC(=O)Nc1cc(Nc2cc(Nc3cc(F)c(OC)c(Cl)c3)ncn2)c(OC)cc1N(C)CCN(C)C [Compound 236, N-(5-(6-(3-chloro-5-fluoro-4-methoxyphenylamino)-pyrimidin-4-yl-amino)-2-((2-dimethylamino-ethyl)-methyl-amino)-4-methoxyl-phenyl)-acrylamide] | 97.5% | – | – | – | – | – | – | – | – | – | –
